From paper PMC9492458, “Development and structure–activity relationships of tanshinones as selective 11β-hydroxysteroid dehydrogenase 1 inhibitors” (Natural Products and Bioprospecting, 2022) come the findings set out here.

Assay [1] deals with human 11β-HSD1 (Homo sapiens, UniProt P28845). The assay is described as follows: scintillation proximity assay (SPA), microsomes of HEK-293 cells transfected with human 11β-HSD1. Particulars: for inhibition at 1 µM: read-out: Inhibitory ratio h-HSD1, at 1.0 μM, averages of three determinations; for Human SI (selectivity index): Table 3, SI = IC50(HSD2)/IC50(HSD1). On the technique in general: SPA uses beads or plates that emit light when radiolabelled molecules are held near them.
Chain of human 11β-HSD1 (P28845 whole entry): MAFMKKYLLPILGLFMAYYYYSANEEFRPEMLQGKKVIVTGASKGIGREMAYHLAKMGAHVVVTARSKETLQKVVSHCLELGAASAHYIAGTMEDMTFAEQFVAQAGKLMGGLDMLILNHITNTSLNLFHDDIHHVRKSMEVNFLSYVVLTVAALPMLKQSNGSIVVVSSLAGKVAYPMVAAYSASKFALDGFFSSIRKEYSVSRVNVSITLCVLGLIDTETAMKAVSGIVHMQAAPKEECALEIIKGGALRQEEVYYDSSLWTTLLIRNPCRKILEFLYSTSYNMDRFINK
Procedure: (§1) With diverse tanshinones in hand, inhibition of human and mouse 11β-HSD1 enzymatic potency was measured by scintillation proximity assay (SPA) using microsomes containing 11β-HSD1 [46, 47]. Results are reported as the average of two or three independent experiments at each concentration.
(§2) The SPA was used to screen for inhibitors of 11β-HSDs [48], with the microsome fractions prepared from the HEK-293 cells stably transfected with either human or mouse 11β-HSD1 or 11β-HSD2 as the enzyme source. […] Reactions were initiated by the addition of 11β-HSD1 or 11β-HSD2, enzyme. […] The plates were incubated under plastic film on an orbital shaker for 120 min at room temperature before counting. The amount of [^3H]-cortisol generated in 11β-HSD1 enzyme reaction or remaining from the 11β-HSD2 enzyme reaction was captured by the beads and determined in a microplate liquid scintillation counter. The % inhibition was calculated relative to a non-inhibited control. Data were obtained from two or three independent experiments. IC50 values were calculated from concentration–response curves by a non-linear regression analysis using Prism Version 6.

In assay [2] the target is mouse 11β-HSD1 (Mus musculus, UniProt P50172). The assay is described as follows: scintillation proximity assay (SPA), microsomes of HEK-293 cells transfected with mouse 11β-HSD1. Particulars: for inhibition at 1 µM: read-out: Inhibitory ratio m-HSD1, at 1.0 μM, averages of three determinations; for Mouse SI (selectivity index): SI = IC50(HSD2)/IC50(HSD1).
Chain of mouse 11β-HSD1 (P50172 whole entry): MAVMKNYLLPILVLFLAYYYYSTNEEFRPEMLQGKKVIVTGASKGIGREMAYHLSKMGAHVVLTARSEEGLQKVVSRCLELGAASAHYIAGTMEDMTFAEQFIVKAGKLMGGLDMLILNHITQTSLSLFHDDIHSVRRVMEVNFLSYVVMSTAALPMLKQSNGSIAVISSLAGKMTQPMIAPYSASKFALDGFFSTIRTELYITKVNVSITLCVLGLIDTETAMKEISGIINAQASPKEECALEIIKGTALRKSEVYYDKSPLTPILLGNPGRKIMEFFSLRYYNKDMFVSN
Procedure: as §1, §2
In assay [3] the target is T1, mouse 11β-HSD2 (Mus musculus, UniProt P51661).
T1 sequence (P51661 1-386): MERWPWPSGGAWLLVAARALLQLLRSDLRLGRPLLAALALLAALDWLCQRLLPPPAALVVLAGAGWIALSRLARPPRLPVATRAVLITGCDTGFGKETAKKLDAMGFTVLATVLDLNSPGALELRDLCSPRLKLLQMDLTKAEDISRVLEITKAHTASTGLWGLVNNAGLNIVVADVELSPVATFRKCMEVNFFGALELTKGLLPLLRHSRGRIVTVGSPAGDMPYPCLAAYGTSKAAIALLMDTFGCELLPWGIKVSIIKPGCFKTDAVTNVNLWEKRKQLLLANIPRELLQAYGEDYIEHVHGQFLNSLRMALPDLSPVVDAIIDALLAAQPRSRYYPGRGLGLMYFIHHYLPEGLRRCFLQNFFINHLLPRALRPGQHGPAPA
The assay is described as follows: scintillation proximity assay (SPA), microsomes of HEK-293 cells transfected with mouse 11β-HSD2.
Procedure: as §1, §2

The target in assay [4] is T2, human 11β-HSD2 (Homo sapiens, UniProt P80365).
T2 sequence (P80365 1-405): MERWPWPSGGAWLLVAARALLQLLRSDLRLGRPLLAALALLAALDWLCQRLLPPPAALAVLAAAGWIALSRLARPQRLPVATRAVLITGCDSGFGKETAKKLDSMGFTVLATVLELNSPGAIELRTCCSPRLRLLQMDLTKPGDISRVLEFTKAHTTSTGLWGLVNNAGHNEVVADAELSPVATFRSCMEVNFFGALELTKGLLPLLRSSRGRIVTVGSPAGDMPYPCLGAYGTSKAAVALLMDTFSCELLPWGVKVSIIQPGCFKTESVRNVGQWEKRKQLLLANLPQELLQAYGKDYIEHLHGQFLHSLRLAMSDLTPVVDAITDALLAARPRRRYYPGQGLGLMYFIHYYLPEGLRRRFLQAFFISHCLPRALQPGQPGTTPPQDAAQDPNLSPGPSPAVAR
The assay is described as follows: scintillation proximity assay (SPA), microsomes of HEK-293 cells transfected with human 11β-HSD2.
Procedure: as §1, §2

Regarding `Cc1coc2c3ccc4c(c3c3[nH]c(-c5ccc(O)cc5)nc3c12)CCCC4(C)C` [Compound 26], the inhibition at 1 µM worked out at 12.8 ± 0.8% in assay [1] and 19.2 ± 5.3% in assay [2].

Turning to `CC(=O)OC1CCc2c(ccc3c2C(=O)C(=O)c2c(CO)coc2-3)C1(C)C` (stereo not drawn) [Compound 35], the IC50 in assay [3] is more than 100 µM; in assay [2] it was 21.9 ± 7.9 nM. In addition, the inhibition at 1 µM in assay [1] worked out at 48.9 ± 1.9%; in assay [2] it was 83.6 ± 1.9%. In addition, the “Mouse SI (selectivity index)” value in assay [2] (Table 3) is more than 4575.5.

With `Cc1c(-c2ccsc2)oc2c1C(=O)C(=O)c1c-2ccc2c1CCCC2(C)C` [Compound 27d], the results for the inhibition at 1 µM in assay [1] and in assay [2] were 14.5 ± 1.4% and 37.4 ± 2.8%, respectively.

Consider `CC(=O)Oc1c2c(c3ccc4c(c3c1OC(C)=O)CCCC4(C)C)OC[C@@H]2C` [Compound 21], for which the inhibition at 1 µM was 5.1 ± 1.8% in assay [1] and 28.6 ± 0.3% in assay [2].

On to `Cc1c(CN2CCCCC2)oc2c1C(=O)C(=O)c1c-2ccc2c1CCCC2(C)C` [Compound 29b], for which the IC50 in assay [3] was more than 100 µM; in assay [4], 6.5 ± 3.6 µM; in assay [1], 42.6 ± 4.4 nM; in assay [2] it was 65.5 ± 3.7 nM. Also, the “Human SI (selectivity index)” value in assay [1] was 151.9. Also, the inhibition at 1 µM in assay [1] is 87.8 ± 0.8%; in assay [2], 89.5%. Further, the “Mouse SI (selectivity index)” value in assay [2] (Table 3) is more than 1526.7.

For the molecule `Cc1coc2c1C(=O)C(=O)c1c-2ccc2c1C[C@@H](O)CC2(C)C` [Compound 19], the IC50 in assay [3] is more than 10 µM; in assay [4], 2.7 ± 0.5 µM; in assay [1] it was 320 nM; in assay [2], 48.4 ± 6.6 nM. The “Human SI (selectivity index)” value in assay [1] is given as 8.3. Moreover, the results for the inhibition at 1 µM in assay [1] and in assay [2] were 63.9 ± 2.7% and 86.7 ± 2.1%, respectively. Further, the “Mouse SI (selectivity index)” value in assay [2] (Table 3) is recorded as more than 206.6.

Turning to `Cc1coc2c1C(=O)C(=O)c1c-2ccc2c1C(=O)C(O)=CC2(C)C` [Compound 20], the half-maximal inhibitory concentration (IC50) was more than 10 µM in assay [3] and 96.6 ± 16.5 nM in assay [2]. Moreover, the inhibition at 1 µM stood at 38.5 ± 2.2% in assay [1] and 81.8 ± 1.5% in assay [2]. Also, the “Mouse SI (selectivity index)” value in assay [2] (Table 3) was more than 103.6.

For `CC1(C)CCCc2c1ccc1c2C(=O)C(=O)c2c(CNc3ccccc3)coc2-1` [Compound 31a], the IC50 in assay [3] was more than 10 µM; in assay [1] it was more than 1000 nM; in assay [2] it was 56.6 ± 0.7 nM. The inhibition at 1 µM in assay [1] worked out at 32.6 ± 5.8%; in assay [2] it was 88.9 ± 3.5%. In addition, in assay [2] (Table 3), the “Mouse SI (selectivity index)” value is more than 176.4.

Consider `Cc1coc2c1C(=O)C(=O)c1c-2ccc2c1CCC(O)C2(C)C` (stereo not drawn) [Compound 15], for which the results for the IC50 in assay [3] and in assay [2] were more than 100 µM and 72.9 ± 9.3 nM, respectively. Besides, the inhibition at 1 µM came to 40.6 ± 1.5% in assay [1] and 85.3 ± 0.2% in assay [2]. The “Mouse SI (selectivity index)” value in assay [2] (Table 3) is reported as more than 1371.7.

With `Cc1c(Br)oc2c1C(=O)C(=O)c1c-2ccc2c1C=CCC2(C)C` [Compound 33], the IC50 was more than 100 µM in assay [3], 1.2 ± 0.5 µM in assay [4], 210 nM in assay [1] and 39.3 ± 7.6 nM in assay [2]. Further, in assay [1], the “Human SI (selectivity index)” value is reported as 5.8. In addition, the inhibition at 1 µM in assay [1] amounted to 70 ± 0.4%; in assay [2], 87.3 ± 1.3%. Besides, in assay [2] (Table 3), the “Mouse SI (selectivity index)” value is more than 2551.0.

Take `Cc1coc2c1c(=O)oc1c3ccccc3ccc21` [Compound 9]: the inhibition at 1 µM in assay [1] worked out at 14 ± 1.3%; in assay [2] it was 8.4%.

`Cc1c(CN2CCN(C)CC2)oc2c1C(=O)C(=O)c1c-2ccc2c1CCCC2(C)C` [Compound 29d]: the IC50 in assay [3] is more than 100 µM; in assay [4] it was 2.5 ± 0.6 µM; in assay [1], 183 ± 32.5 nM; in assay [2] it was 272 ± 60.2 nM. The “Human SI (selectivity index)” value in assay [1] is recorded as 13.6. For the same molecule, the inhibition at 1 µM in assay [1] was determined as 67.3 ± 3.1%; in assay [2], 55.6 ± 1.8%. In addition, the “Mouse SI (selectivity index)” value in assay [2] (Table 3) was more than 367.2.

As to `Cc1c(CN(C)C)oc2c1C(=O)C(=O)c1c-2ccc2c1CCCC2(C)C` [Compound 29a], the IC50 in assay [3] is more than 100 µM; in assay [4] it was 5.6 ± 0.9 µM; in assay [1] it was 38 ± 0.4 nM; in assay [2] it was 17.1 ± 0.9 nM. Also, the “Human SI (selectivity index)” value in assay [1] was 147.9. Further, the figures for the inhibition at 1 µM in assay [1] and in assay [2] were 92.1 ± 2.4% and 96.6 ± 0.6%, respectively. For the same molecule, the “Mouse SI (selectivity index)” value in assay [2] (Table 3) is listed as more than 5813.9.

For `CC(=O)OC1CCc2c(ccc3c2C(=O)C(=O)c2c(C)coc2-3)C1(C)C` (stereo not drawn) [Compound 16], the IC50 in assay [3] is more than 100 µM; in assay [4], 7.3 ± 2.2 µM; in assay [1], 890 ± 100 nM; in assay [2], 10.1 ± 0.8 nM. In assay [1], the “Human SI (selectivity index)” value came out at 8.2. Further, the inhibition at 1 µM came to 50.3 ± 2.7% in assay [1] and 89.3 ± 1.5% in assay [2]. Moreover, the “Mouse SI (selectivity index)” value in assay [2] (Table 3) was more than 9900.9.

With `Cc1c[nH]c2c1C(=O)C(=O)c1c-2ccc2c1CCCC2(C)C` [Compound 24], the results for the inhibition at 1 µM in assay [1] and in assay [2] were 33.6 ± 0.8% and 56 ± 2.2%, respectively.

Take `CC1(C)CCCc2c1ccc1c2C(=O)C(=O)c2c-1oc(Cl)c2CO` [Compound 32]: the values for the IC50 in assay [3], in assay [1] and in assay [2] were more than 10 µM, more than 1000 nM and 328 ± 20.2 nM, respectively. The inhibition at 1 µM in assay [1] was found to be 21.4 ± 1.8%; in assay [2] it was 70.1 ± 1.1%. In addition, the “Mouse SI (selectivity index)” value in assay [2] (Table 3) is more than 30.5.

Consider `Cc1c(-c2ccnc3ccccc23)oc2c1C(=O)C(=O)c1c-2ccc2c1CCCC2(C)C` [Compound 27e], for which the inhibition at 1 µM in assay [1] came out at 15.1 ± 0.8%; in assay [2], 42.9 ± 3.7%.

Consider `Cc1c(-c2ccc(F)cc2)oc2c1C(=O)C(=O)c1c-2ccc2c1CCCC2(C)C` [Compound 27b], for which the inhibition at 1 µM in assay [1] was 3.8 ± 1.5%; in assay [2], 5.6 ± 0.5%.

For the molecule `Cc1coc2ccc(O)cc12` [Compound 12], the inhibition at 1 µM in assay [1] was 10 ± 2.3%; in assay [2] it was 12.4 ± 1.4%.

With `C[C@H]1COC2=C1C(=O)C(=O)c1c2ccc2c1CCCC2(C)C` [Compound 2, cryptotanshinone], the IC50 in assay [3] was more than 1000 µM; in assay [4], 12.1 µM; in assay [1], 73.1 ± 31.3 nM; in assay [2], 41.8 ± 8.7 nM. For the same molecule, the inhibition at 1 µM in assay [1] worked out at 91.3 ± 0.1%; in assay [2], 89.9 ± 3.7%. The “Mouse SI (selectivity index)” value in assay [2] (Table 1) is given as > 23,923.

Regarding `Cc1coc2c1C(=O)C(=O)c1ccccc1-2` [Compound 10], the IC50 in assay [3] is more than 10 µM; in assay [4] it was more than 10 µM; in assay [1] it was 121 nM; in assay [2], 66.5 ± 5.6 nM. Further, in assay [1], the “Human SI (selectivity index)” value is more than 82.5. The figures for the inhibition at 1 µM in assay [1] and in assay [2] were 87.6 ± 2.2% and 89.9 ± 0.9%, respectively. The “Mouse SI (selectivity index)” value in assay [2] (Table 3) is more than 150.3.

With `Cc1c(CN2CCOCC2)oc2c1C(=O)C(=O)c1c-2ccc2c1CCCC2(C)C` [Compound 29c], the results for the inhibition at 1 µM in assay [1] and in assay [2] were 45.2 ± 0.7% and 6.7 ± 4.3%, respectively.

On to `C[C@@H](CO)C1=C(N)c2ccc3c(c2C(=O)C1=O)CCCC3(C)C` [Compound 25], for which the figures for the IC50 in assay [3] and in assay [2] were more than 10 µM and 95 ± 17.8 nM, respectively. In addition, the figures for the inhibition at 1 µM in assay [1] and in assay [2] were 35.5 ± 2.8% and 85.1 ± 0.6%, respectively. Also, the “Mouse SI (selectivity index)” value in assay [2] (Table 3) is recorded as more than 105.3.

As for `CC1(C)CCCc2c1ccc1c2C(=O)C(=O)c2c(CN3CCOCC3)coc2-1` [Compound 31b], the results for the inhibition at 1 µM in assay [1] and in assay [2] were 16.9 ± 3.7% and 37 ± 3.2%, respectively.

With `Cc1coc2c1C(=O)C(=O)c1c-2ccc2c1C(=O)C(O)CC2(C)C` (stereo not drawn) [Compound 18b], the inhibition at 1 µM in assay [1] was determined as 43.2 ± 1.7%; in assay [2], 49.4 ± 1.6%.

Take `Cc1coc2c1C(=O)C(=O)C=C2` [Compound 11]: the inhibition at 1 µM came to 9.9 ± 1.1% in assay [1] and 33 ± 2.3% in assay [2].

`Cc1c(-c2ccccc2)oc2c1C(=O)C(=O)c1c-2ccc2c1CCCC2(C)C` [Compound 27a]: the inhibition at 1 µM was found to be 33.9 ± 1.8% in assay [1] and 25.9 ± 0.3% in assay [2].

Regarding `Cc1coc2c1C(=O)C(=O)c1c-2ccc2c1[C@H](O)[C@@H](O)CC2(C)C` (racemic) [Compound 18a], the IC50 in assay [3] is more than 100 µM; in assay [2] it was 138 ± 10.8 nM. For the same molecule, the inhibition at 1 µM in assay [1] is 31.1 ± 0.2%; in assay [2] it was 89 ± 3.5%. Further, in assay [2] (Table 3), the “Mouse SI (selectivity index)” value is reported as more than 724.1.

One may read the IC50 as the concentration that gives 50% inhibition. Higher therefore signals weaker potency in that assay.
